Measurements as given in patent US12495798B2, “Nicotinamide compound and herbicidal composition comprising compound” (KOREA RESEARCH INSTITUTE OF CHEMICAL TECHNOLOGY, priority 2019, dated 2025).

What was measured:
Format in all cases: in vivo
[1] = test system: sorghum; experiment: Herbicidal activity test against upland field weeds (foliar treatment test); parameters: key to Foliar treatment herbicidal activity, Sorghum: 0 (no control); 100 (complete control); details: scale 0-100; for plant injury at 50 g/ha / Foliar treatment herbicidal activity, Sorghum: 50 g ai/ha
Procedure, shortened: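 Weeds were raised from seed or rootstocks in horticultural soil in a greenhouse (30±5° C., 14/10 h light/dark), then foliage was hand-sprayed with compound at 50 or 75 g a.i./ha in 50% acetone with 0.1% Tween-20. Control was scored visually 0–100 against untreated plants after 14 days, or 21 if needed.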

[2] = test system: barnyard grass; experiment: Herbicidal activity test against upland field weeds (soil treatment test); parameters: key to Soil treatment herbicidal activity, barnyard grass: 0 (no control); 100 (complete control); details: scale 0 (no control) to 100 (complete control); for pest or weed control at 50 g/ha: Echinochloa crus-galli
Procedure, shortened: (§1)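 Pre-emergence test: seeds or rootstocks were sown in fertilized sandy loam, and the next day the soil surface was sprayed with compound at 50 or 75 g a.i./ha in 50% acetone/0.1% Tween-20. Plants were grown in a greenhouse (30±5 °C, 14/10 h light/dark), then visually scored 0–100 against untreated at 14 d (21 d if needed).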

[3] = test system: black nightshade; experiment: as above; parameters: key to Soil treatment herbicidal activity, black nightshade: 0 (no control); 100 (complete control); details: scale 0 (no control) to 100 (complete control); for pest or weed control at 50 g/ha: Solanum nigrum
Procedure, shortened: as §1

Compound	plant injury at 50 g/ha ([1]; Sorghum) [%]	pest or weed control at 50 g/ha ([2]; 50 g ai/ha) [%]	Soil treatment herbicidal activity, black nightshade ([3]; 50 g ai/ha)	Soil treatment herbicidal activity, barnyard grass ([2]; 50 g ai/ha)	also measured
Cn1nnnc1COc1nc(C(F)(F)F)ccc1C(=O)Nc1nnnn1C [Compound No. 1-1, N-(1-methyl-1H-tetrazol-5-yl)-2-((1-methyl-1H-tetrazol-5-yl)methoxy)-6-(trifluoromethyl)nicotinamide]	70	95	100		
Cn1nnnc1NC(=O)c1ccc(C(F)(F)F)nc1OCc1nnnn1C(F)F [Compound No. 1-26, 2-((1-(difluoromethyl)-1H-tetrazol-5-yl)methoxy)-N-(1-methyl-1H-tetrazol-5-yl)-6-(trifluoromethyl)nicotinamide]	70		100	100	
Cn1nnnc1COc1nc(C(F)(F)F)ccc1C(=S)Nc1nnnn1C [Compound No. 1-43, N-(1-methyl-1H-tetrazol-5-yl)-2-((1-methyl-1H-tetrazol-5-yl)methoxy)-6-(trifluoromethyl)pyridin-3-carbothioamide]	60		0	0	
Cn1ncnc1COc1nc(C(F)(F)F)ccc1C(=O)Nc1nnnn1C [Compound No. 1-45, 2-((1-methyl-1H-1,2,4-triazol-5-yl)methoxy)-N-(1-methyl-1H-tetrazol-5-yl)-6-(trifluoromethyl)nicotinamide]	50	98	100		
Cn1nnnc1COCc1nc(C(F)(F)F)ccc1C(=O)Nc1nnnn1C [Compound No. 1-61, N-(1-methyl-1H-tetrazol-5-yl)-2-(((1-methyl-1H-tetrazol-5-yl)methoxy)methyl)-6-(trifluoromethyl)nicotinamide]	20	20			pest or weed control at 50 g/ha ([3]; 50 g ai/ha): 98%
Cn1ncnc1COCc1nc(C(F)(F)F)ccc1C(=O)Nc1nnnn1C [Compound No. 1-102, 2-(((1-methyl-1H-1,2,4-triazol-5-yl)methoxy)methyl)-N-(1-methyl-1H-tetrazol-5-yl)-6-(trifluoromethyl)nicotinamide]	50	20			
Cn1nnc(COc2nc(C(F)(F)F)ccc2C(=O)Nc2nnnn2C)n1 [Compound No. 2-1, N-(1-methyl-1H-tetrazol-5-yl)-2-((2-methyl-2H-tetrazol-5-yl)methoxy)-6-(trifluoromethyl)nicotinamide]				0	Foliar treatment herbicidal activity, Sorghum [1]: 0; pest or weed control at 50 g/ha ([3]; 50 g ai/ha): 90%
CN(Cc1nnn(C)n1)c1nc(C(F)(F)F)ccc1C(=O)Nc1nnnn1C [Compound No. 2-26, 2-(methyl((2-methyl-2H-tetrazol-5-yl)methyl)amino)-N-(1-methyl-1H-tetrazol-5-yl)-6-(trifluoromethyl)nicotinamide]					plant injury at 75 g/ha ([1]; Sorghum, 75 g ai/ha): 10%; Soil treatment herbicidal activity, barnyard grass ([2]; 75 g ai/ha): 100; Soil treatment herbicidal activity, black nightshade ([3]; 75 g ai/ha): 100
CON(Cc1nnn(C)n1)c1nc(C(F)(F)F)ccc1C(=O)Nc1nnnn1C [Compound No. 2-30, 2-(methoxy((2-methyl-2H-tetrazol-5-yl)methyl)amino)-N-(1-methyl-1H-tetrazol-5-yl)-6-(trifluoromethyl)nicotinamide]	20		100	100	
Cn1nnc(COCc2nc(C(F)(F)F)ccc2C(=O)Nc2nnnn2C)n1 [Compound No. 2-59, N-(1-methyl-1H-tetrazol-5-yl)-2-(((2-methyl-2H-tetrazol-5-yl)methoxy)methyl)-6-(trifluoromethyl)nicotinamide]	98		100	100	
Cn1nnc(COCc2nc(C(F)(F)F)ccc2C(=O)N(C(=O)c2ccccc2)c2nnnn2C)n1 [Compound No. 2-68, N-benzoyl-N-(1-methyl-1H-tetrazol-5-yl)-2-(((2-methyl-2H-tetrazol-5-yl)methoxy)methyl)-6-(trifluoromethyl)nicotinamide]	80	98			
Cn1nnc(COCc2nc(C(F)(F)F)ccc2C(=O)N(c2nnnn2C)S(C)(=O)=O)n1 [Compound No. 2-69, N-(1-methyl-1H-tetrazol-5-yl)-2-(((2-methyl-2H-tetrazol-5-yl)methoxy)methyl)-N-(methylsulfonyl)-6-(trifluoromethyl)nicotinamide]	40	100			
Cn1nnc(COCc2nc(C(F)(F)Cl)ccc2C(=O)Nc2nnnn2C)n1 [Compound No. 2-78, 6-(chlorodifluoromethyl)-N-(1-methyl-1H-tetrazol-5-yl)-2-(((2-methyl-2H-tetrazol-5-yl)methoxy)methyl)nicotinamide]	30			100	
Cn1nnc(COCc2nc(C(F)(F)C(F)(F)F)ccc2C(=O)Nc2nnnn2C)n1 [Compound No. 2-81, N-(1-methyl-1H-tetrazol-5-yl)-2-(((2-methyl-2H-tetrazol-5-yl)methoxy)methyl)-6-(perfluoroethyl)nicotinamide]	40			100	
Cn1nnc(COCc2nc(C(F)F)ccc2C(=O)Nc2nnnn2C)n1 [Compound No. 2-84, 6-(difluoromethyl)-N-(1-methyl-1H-tetrazol-5-yl)-2-(((2-methyl-2H-tetrazol-5-yl)methoxy)methyl)nicotinamide]	90	70	100		
Cn1cnc(COCc2nc(C(F)F)ccc2C(=O)Nc2nnnn2C)n1 [Compound No. 2-85]			93	0	Foliar treatment herbicidal activity, Sorghum [1]: 5
CON(Cc1nnn(C)n1)Cc1nc(C(F)(F)F)ccc1C(=O)Nc1nnnn1C [Compound No. 2-97, 2-((methoxy((2-methyl-2H-tetrazol-5-yl)methyl)amino)methyl)-N-(1-methyl-1H-tetrazol-5-yl)-6-(trifluoromethyl)nicotinamide]	50				
Cn1nnc(CSCc2nc(C(F)(F)F)ccc2C(=O)Nc2nnnn2C)n1 [Compound No. 2-102, N-(1-methyl-1H-tetrazol-5-yl)-2-((((2-methyl-2H-tetrazol-5-yl)methyl)thio)methyl)-6-(trifluoromethyl)nicotinamide]	70	98	100		
Cn1nnc(CS(=O)(=O)Cc2nc(C(F)(F)F)ccc2C(=O)Nc2nnnn2C)n1 [Compound No. 2-105, N-(1-methyl-1H-tetrazol-5-yl)-2-((((2-methyl-2H-tetrazol-5-yl)methyl)sulfonyl)methyl)-6-(trifluoromethyl)nicotinamide]	20			0	pest or weed control at 50 g/ha ([3]; 50 g ai/ha): 60%
Cn1nnc(COCc2nc(C(F)(F)F)ccc2C(=S)Nc2nnnn2C)n1 [Compound No. 2-106, N-(1-methyl-1H-tetrazol-5-yl)-2-(((2-methyl-2H-tetrazol-5-yl)methoxy)methyl)-6-(trifluoromethyl)pyridin-3-carbothioamide]	70			100	
Cn1nnc(CSCc2nc(C(F)F)ccc2C(=O)Nc2nnnn2C)n1 [Compound No. 2-108, 6-(difluoromethyl)-N-(1-methyl-1H-tetrazol-5-yl)-2-((((2-methyl-2H-tetrazol-5-yl)methyl)thio)methyl)nicotinamide]	70			0	pest or weed control at 50 g/ha ([3]; 50 g ai/ha): 30%
Cn1nnc(CSCc2nc(C(F)(F)F)ccc2C(=O)N(c2nnnn2C)S(C)(=O)=O)n1 [Compound No. 2-110, N-(1-methyl-1H-tetrazol-5-yl)-2-((((2-methyl-2H-tetrazol-5-yl)methyl)thio)methyl)-N-(methylsulfonyl)-6-(trifluoromethyl)nicotinamide]	20				
Cc1nc(COCc2nc(C(F)(F)F)ccc2C(=O)Nc2nnnn2C)nn1C [Compound No. 2-116, 2-(((1,5-dimethyl-1H-1,2,4-triazol-3-yl)methoxy)methyl)-N-(1-methyl-1H-tetrazol-5-yl)-6-(trifluoromethyl)nicotinamide]	40				
Cc1nc(COCc2nc(C(F)(F)F)ccc2C(=S)Nc2nnnn2C)nn1C [Compound No. 2-117, 2-(((1,5-dimethyl-1H-1,2,4-triazol-3-yl)methoxy)methyl)-N-(1-methyl-1H-tetrazol-5-yl)-6-(trifluoromethyl)pyridin-3-carbothioamide]	40				
Cn1nc(COCc2nc(C(F)(F)F)ccc2C(=O)Nc2nnnn2C)nc1C#N [Compound No. 2-134, 2-(((5-cyano-1-methyl-1H-1,2,4-triazol-3-yl)methoxy)methyl)-N-(1-methyl-1H-tetrazol-5-yl)-6-(trifluoromethyl)nicotinamide]	10				
Cn1nc(COCc2nc(C(F)(F)F)ccc2C(=O)Nc2nnnn2C)nc1Br [Compound No. 2-136, 2-(((5-bromo-1-methyl-1H-1,2,4-triazol-3-yl)methoxy)methyl)-N-(1-methyl-1H-tetrazol-5-yl)-6-(trifluoromethyl)nicotinamide]	20				
